From PubChem BioAssay (NCI)
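Five concentrations, 48 hours, 96-well plates. The concentration for 50% growth inhibition is given as GI50. TGI: total growth inhibition.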

Key:
Test in all cases: NCI tumour cell line growth inhibition, 48 h
[1] = system: HOP-92 NSCLC
[2] = system: NCI-H460 lung
[3] = system: OVCAR-8 ovarian
[4] = system: MDA-MB-231 breast
[5] = system: SN12C renal
[6] = system: BT-549 breast
[7] = system: SK-OV-3 ovarian
[8] = system: HT29 colon
[9] = system: 786-0 renal
[10] = system: MDA-MB-435
[11] = system: PC-3 prostate
[12] = system: ACHN renal
[13] = system: HCT-15 colon
[14] = system: UACC-62 melanoma
[15] = system: NCI-H522 lung
[16] = system: RPMI-8226 leukemia
[17] = system: HOP-62 NSCLC
[18] = system: COLO 205 colon
[19] = system: UO-31 renal
[20] = system: MCF7 breast
[21] = system: K-562 leukemia
[22] = system: OVCAR-5 ovarian
[23] = system: UACC-257 melanoma
[24] = system: IGROV1 ovarian
[25] = system: MOLT-4 leukemia
[26] = system: A549 NSCLC
[27] = system: CAKI-1 renal
[28] = system: CCRF-CEM leukemia
[29] = system: NCI-H23 lung
[30] = system: TK-10 renal
[31] = system: RXF 393 renal
[32] = system: HS 578T breast
[33] = system: HCC-2998 colon
[34] = system: EKVX NSCLC
[35] = system: SK-MEL-28 melanoma
[36] = system: SNB-75 CNS
[37] = system: OVCAR-4 ovarian
[38] = system: KM12 colon
[39] = system: DU-145 prostate
[40] = system: SW-620 colon
[41] = system: HL-60(TB) leukemia
[42] = system: HCT-116 colon
[43] = system: T-47D breast
[44] = system: NCI-H226 lung
[45] = system: U251 CNS
[46] = system: SF-295 CNS
[47] = system: SNB-19 CNS
[48] = system: LOX IMVI melanoma
[49] = system: SF-268 CNS
[50] = system: OVCAR-3 ovarian
[51] = system: MALME-3M melanoma
[52] = system: A498 renal
[53] = system: SK-MEL-5 melanoma
[54] = system: SR leukemia
[55] = system: SK-MEL-2 melanoma
[56] = system: NCI/ADR-RES ovarian
[57] = system: SF-539 CNS
[58] = system: MDA-N
[59] = system: M14 melanoma

In the case of `COC(=O)c1cc2c3ccccc3[nH]c2c2sccc12`, the GI50 [1] is reported as 17.2 µM, the TGI [1] is reported as 99.7 µM and the GI50 [2] is reported as 20.1 µM. For the same compound, the TGI [2] was 43.8 µM, the GI50 [3] was 38.3 µM and the TGI [3] was over 100 µM. For the same compound, the GI50 [4] was 5.06 µM, the TGI [4] was 61.3 µM and the GI50 [5] was 21.8 µM. The TGI [5] was 61.8 µM, the GI50 [6] was 20.2 µM and the TGI [6] was 57 µM. It also gave a GI50 [7] of 34.1 µM, a TGI [7] of over 100 µM and a GI50 [8] of 6.96 µM. It also gave a TGI [8] of 18.7 µM, a GI50 [9] of 13.8 µM and a TGI [9] of 40.7 µM. It also gave a GI50 [10] of 20.3 µM, a TGI [10] of over 100 µM and a GI50 [11] of 22.1 µM. It also gave a TGI [11] of over 100 µM, a GI50 [12] of 13.6 µM and a TGI [12] of over 100 µM. It also gave a GI50 [13] of 8.9 µM, a TGI [13] of 94.4 µM and a GI50 [14] of 22.3 µM. It also gave a TGI [14] of over 100 µM, a GI50 [15] of 17.2 µM and a TGI [15] of over 100 µM. It also gave a GI50 [16] of 15.1 µM, a TGI [16] of over 100 µM and a GI50 [17] of 11.2 µM. For the same compound, the TGI [17] was 39.8 µM, the GI50 [18] was 17 µM and the TGI [18] was 41.8 µM. It also gave a GI50 [19] of 7.59 µM, a TGI [19] of over 100 µM and a GI50 [20] of 27 µM. It also gave a TGI [20] of over 100 µM, a GI50 [21] of 15.2 µM and a TGI [21] of over 100 µM. For the same compound, the GI50 [22] was 23.1 µM, the TGI [22] was over 100 µM and the GI50 [23] was 89.6 µM. The TGI [23] was over 100 µM, the GI50 [24] was 4.31 µM and the TGI [24] was over 100 µM. It also gave a GI50 [25] of 15.7 µM, a TGI [25] of over 100 µM and a GI50 [26] of 25.5 µM. The TGI [26] was over 100 µM, the GI50 [27] was 13.7 µM and the TGI [27] was 98.3 µM. For the same compound, the GI50 [28] was 46 µM, the TGI [28] was over 100 µM and the GI50 [29] was 33.8 µM. For the same compound, the TGI [29] was over 100 µM, the GI50 [30] was 13.8 µM and the TGI [30] was 52.6 µM. It also gave a GI50 [31] of 23.6 µM, a TGI [31] of 80.4 µM and a GI50 [32] of 13.5 µM. For the same compound, the TGI [32] was 38.7 µM, the GI50 [33] was 19.4 µM and the TGI [33] was 43.5 µM. For the same compound, the GI50 [34] was 4.12 µM, the TGI [34] was over 100 µM and the GI50 [35] was 40.4 µM. The TGI [35] was over 100 µM, the GI50 [36] was 19 µM and the TGI [36] was 70.6 µM. It also gave a GI50 [37] of 26.5 µM, a TGI [37] of 76.9 µM and a GI50 [38] of 12.3 µM. It also gave a TGI [38] of 87.2 µM, a GI50 [39] of 19.7 µM and a TGI [39] of 66.5 µM. The GI50 [40] was 35.1 µM, the TGI [40] was over 100 µM and the GI50 [41] was over 100 µM. It also gave a TGI [41] of over 100 µM, a GI50 [42] of 34.1 µM and a TGI [42] of over 100 µM. For the same compound, the GI50 [43] was 6.73 µM, the TGI [43] was 47.1 µM and the GI50 [44] was 68 µM. The TGI [44] was over 100 µM, the GI50 [45] was 14.3 µM and the TGI [45] was 34 µM. The GI50 [46] was 8.57 µM, the TGI [46] was 48.7 µM and the GI50 [47] was 23.6 µM. For the same compound, the TGI [47] was 79.7 µM, the GI50 [48] was 5.68 µM and the TGI [48] was 24.8 µM. For the same compound, the GI50 [49] was 32.4 µM, the TGI [49] was over 100 µM and the GI50 [50] was 24.1 µM. It also gave a TGI [50] of over 100 µM, a GI50 [51] of 29.3 µM and a TGI [51] of 62.7 µM. The GI50 [52] was 21 µM, the TGI [52] was 50.6 µM and the GI50 [53] was 16.3 µM. The TGI [53] was 35.4 µM, the GI50 [54] was 12.2 µM and the TGI [54] was 56.5 µM. It also gave a GI50 [55] of 40.8 µM, a TGI [55] of over 100 µM and a GI50 [56] of 28.1 µM. It also gave a TGI [56] of over 100 µM, a GI50 [57] of 21.5 µM and a TGI [57] of 94.8 µM.
`O=S(=O)(SC1=NCCN1)c1cccc2ccccc12` gave a TGI [1] of over 100 µM, a TGI [2] of 84.3 µM and a TGI [3] of over 100 µM. The TGI [4] was 45.6 µM, the TGI [5] was 48.1 µM and the TGI [6] was 76 µM. It also gave a TGI [7] of 45.7 µM, a TGI [8] of over 100 µM and a TGI [9] of 74.9 µM. It also gave a TGI [10] of over 100 µM, a TGI [11] of over 100 µM and a TGI [12] of 70.5 µM. For the same compound, the TGI [13] was over 100 µM, the TGI [14] was over 100 µM and the TGI [15] was 36.2 µM. For the same compound, the TGI [58] was 39.4 µM, the TGI [16] was 66.6 µM and the TGI [17] was over 100 µM. It also gave a TGI [18] of 34.4 µM, a TGI [19] of over 100 µM and a TGI [20] of over 100 µM. For the same compound, the TGI [21] was 63.5 µM, the TGI [22] was 93.5 µM and the TGI [23] was over 100 µM. The TGI [24] was 89.9 µM, the TGI [25] was 95.9 µM and the TGI [26] was 67.8 µM. It also gave a TGI [27] of 59.9 µM, a TGI [28] of over 100 µM and a TGI [29] of 91.2 µM. It also gave a TGI [31] of 71.8 µM, a TGI [33] of over 10 µM and a TGI [34] of over 100 µM. It also gave a TGI [35] of over 100 µM, a TGI [36] of 46 µM and a TGI [37] of over 100 µM. It also gave a TGI [38] of 45.1 µM, a TGI [39] of over 100 µM and a TGI [59] of over 100 µM. For the same compound, the TGI [40] was over 100 µM, the TGI [41] was over 10 µM and the TGI [42] was over 100 µM. The TGI [44] was 73 µM, the TGI [45] was over 100 µM and the TGI [46] was 51.2 µM. The TGI [47] was 83.7 µM, the TGI [48] was over 100 µM and the TGI [50] was over 100 µM. The TGI [51] was over 100 µM, the TGI [52] was 89.7 µM and the TGI [53] was 43 µM. For the same compound, the TGI [54] was over 10 µM, the TGI [55] was over 100 µM and the TGI [56] was over 100 µM. It also gave a TGI [57] of 49.6 µM.
